Measurements from the kinase profiling compilation of Christmann-Franck et al. (2016).

Experiments:
Test in all cases: radiometric filter-binding kinase assay, Kinase HotSpot
Details in all cases: compound 0.5 µM; ATP 10 µM
[1] = target: TAOK3 (human) (UniProt Q9H2K8)
[2] = target: LTK (human) (UniProt P29376)
[3] = target: PRKD1 (human) (UniProt Q15139)
[4] = target: STK24 (human) (UniProt Q9Y6E0)
[5] = target: HIPK2 (human) (UniProt Q9H2X6)
[6] = target: MAP2K2 (human) (UniProt P36507)
[7] = target: ABL2 (human) (UniProt P42684)
[8] = target: FLT3 (human) (UniProt P36888)
[9] = target: MYLK (human) (UniProt Q15746)
[10] = target: FGFR2 (human) (UniProt P21802)
[11] = target: PRKCE (human) (UniProt Q02156)
[12] = target: STK16 (human) (UniProt O75716)
[13] = target: FGR (human) (UniProt P09769)
[14] = target: JAK2 JH1 JH2 (human) (UniProt O60674)
Chain of JAK2 JH1 JH2 (human) (O60674 whole entry, looked up): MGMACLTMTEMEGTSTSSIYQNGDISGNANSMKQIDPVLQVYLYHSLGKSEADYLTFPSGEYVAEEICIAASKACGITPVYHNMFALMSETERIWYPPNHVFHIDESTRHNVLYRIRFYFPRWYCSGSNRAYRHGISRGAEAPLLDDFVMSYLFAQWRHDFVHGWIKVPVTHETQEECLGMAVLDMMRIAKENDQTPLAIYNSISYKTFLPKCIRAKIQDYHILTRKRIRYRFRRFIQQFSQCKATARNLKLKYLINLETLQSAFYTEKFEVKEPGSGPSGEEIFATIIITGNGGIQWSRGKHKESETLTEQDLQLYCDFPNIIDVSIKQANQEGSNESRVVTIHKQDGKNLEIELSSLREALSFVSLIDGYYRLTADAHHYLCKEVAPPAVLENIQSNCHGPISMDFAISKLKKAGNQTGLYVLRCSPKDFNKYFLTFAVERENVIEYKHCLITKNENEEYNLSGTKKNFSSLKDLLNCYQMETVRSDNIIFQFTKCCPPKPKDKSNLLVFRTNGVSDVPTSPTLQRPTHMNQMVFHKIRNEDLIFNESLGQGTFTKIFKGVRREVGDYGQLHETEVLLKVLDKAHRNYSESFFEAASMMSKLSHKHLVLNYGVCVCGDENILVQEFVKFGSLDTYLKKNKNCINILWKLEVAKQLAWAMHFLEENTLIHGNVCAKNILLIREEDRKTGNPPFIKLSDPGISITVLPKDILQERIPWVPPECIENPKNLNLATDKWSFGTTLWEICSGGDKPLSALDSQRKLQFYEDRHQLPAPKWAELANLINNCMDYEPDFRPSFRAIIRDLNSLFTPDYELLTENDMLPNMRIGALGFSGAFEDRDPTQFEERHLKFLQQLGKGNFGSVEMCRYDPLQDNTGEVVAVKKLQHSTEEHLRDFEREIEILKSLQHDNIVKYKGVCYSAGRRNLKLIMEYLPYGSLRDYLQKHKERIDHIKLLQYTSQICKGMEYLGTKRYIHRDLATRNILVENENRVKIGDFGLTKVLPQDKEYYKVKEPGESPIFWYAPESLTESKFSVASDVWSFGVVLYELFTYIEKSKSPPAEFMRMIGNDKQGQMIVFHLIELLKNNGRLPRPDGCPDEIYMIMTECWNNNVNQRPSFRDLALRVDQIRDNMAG

[15] = target: DYRK1A (human) (UniProt Q13627)
[16] = target: MAP3K14 (human) (UniProt Q99558)
Chain of MAP3K14 (human) (Q99558 whole entry, looked up): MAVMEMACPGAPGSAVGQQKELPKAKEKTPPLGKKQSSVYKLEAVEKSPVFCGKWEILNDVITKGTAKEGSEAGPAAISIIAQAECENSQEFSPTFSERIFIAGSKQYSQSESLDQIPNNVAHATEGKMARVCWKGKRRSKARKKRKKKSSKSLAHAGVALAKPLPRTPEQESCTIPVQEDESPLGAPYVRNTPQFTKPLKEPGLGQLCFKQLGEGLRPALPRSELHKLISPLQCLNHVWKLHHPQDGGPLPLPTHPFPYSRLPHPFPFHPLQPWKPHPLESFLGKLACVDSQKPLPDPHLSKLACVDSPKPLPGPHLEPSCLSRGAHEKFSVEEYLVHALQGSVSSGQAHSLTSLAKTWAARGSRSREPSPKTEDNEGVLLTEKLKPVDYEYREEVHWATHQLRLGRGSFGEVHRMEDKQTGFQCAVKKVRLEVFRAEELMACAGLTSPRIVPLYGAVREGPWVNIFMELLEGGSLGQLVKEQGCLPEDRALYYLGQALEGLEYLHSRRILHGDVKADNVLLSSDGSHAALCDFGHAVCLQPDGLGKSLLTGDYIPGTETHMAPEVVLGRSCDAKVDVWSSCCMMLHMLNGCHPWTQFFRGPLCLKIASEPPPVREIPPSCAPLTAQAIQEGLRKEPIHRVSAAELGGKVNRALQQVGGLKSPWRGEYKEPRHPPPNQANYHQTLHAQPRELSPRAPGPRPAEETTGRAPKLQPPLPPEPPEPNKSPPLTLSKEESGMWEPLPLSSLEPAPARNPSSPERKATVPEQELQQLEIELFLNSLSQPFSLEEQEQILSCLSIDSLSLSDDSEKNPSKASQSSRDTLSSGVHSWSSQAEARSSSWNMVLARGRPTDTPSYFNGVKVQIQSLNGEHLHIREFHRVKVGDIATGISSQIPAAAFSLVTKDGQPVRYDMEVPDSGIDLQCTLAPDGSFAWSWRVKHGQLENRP

[17] = target: KIT (human) (UniProt P10721)
[18] = target: SRPK2 (human) (UniProt P78362)
[19] = target: MAPK9 (human) (UniProt P45984)
[20] = target: PASK (human) (UniProt Q96RG2)
Chain of PASK (human) (Q96RG2 whole entry, looked up): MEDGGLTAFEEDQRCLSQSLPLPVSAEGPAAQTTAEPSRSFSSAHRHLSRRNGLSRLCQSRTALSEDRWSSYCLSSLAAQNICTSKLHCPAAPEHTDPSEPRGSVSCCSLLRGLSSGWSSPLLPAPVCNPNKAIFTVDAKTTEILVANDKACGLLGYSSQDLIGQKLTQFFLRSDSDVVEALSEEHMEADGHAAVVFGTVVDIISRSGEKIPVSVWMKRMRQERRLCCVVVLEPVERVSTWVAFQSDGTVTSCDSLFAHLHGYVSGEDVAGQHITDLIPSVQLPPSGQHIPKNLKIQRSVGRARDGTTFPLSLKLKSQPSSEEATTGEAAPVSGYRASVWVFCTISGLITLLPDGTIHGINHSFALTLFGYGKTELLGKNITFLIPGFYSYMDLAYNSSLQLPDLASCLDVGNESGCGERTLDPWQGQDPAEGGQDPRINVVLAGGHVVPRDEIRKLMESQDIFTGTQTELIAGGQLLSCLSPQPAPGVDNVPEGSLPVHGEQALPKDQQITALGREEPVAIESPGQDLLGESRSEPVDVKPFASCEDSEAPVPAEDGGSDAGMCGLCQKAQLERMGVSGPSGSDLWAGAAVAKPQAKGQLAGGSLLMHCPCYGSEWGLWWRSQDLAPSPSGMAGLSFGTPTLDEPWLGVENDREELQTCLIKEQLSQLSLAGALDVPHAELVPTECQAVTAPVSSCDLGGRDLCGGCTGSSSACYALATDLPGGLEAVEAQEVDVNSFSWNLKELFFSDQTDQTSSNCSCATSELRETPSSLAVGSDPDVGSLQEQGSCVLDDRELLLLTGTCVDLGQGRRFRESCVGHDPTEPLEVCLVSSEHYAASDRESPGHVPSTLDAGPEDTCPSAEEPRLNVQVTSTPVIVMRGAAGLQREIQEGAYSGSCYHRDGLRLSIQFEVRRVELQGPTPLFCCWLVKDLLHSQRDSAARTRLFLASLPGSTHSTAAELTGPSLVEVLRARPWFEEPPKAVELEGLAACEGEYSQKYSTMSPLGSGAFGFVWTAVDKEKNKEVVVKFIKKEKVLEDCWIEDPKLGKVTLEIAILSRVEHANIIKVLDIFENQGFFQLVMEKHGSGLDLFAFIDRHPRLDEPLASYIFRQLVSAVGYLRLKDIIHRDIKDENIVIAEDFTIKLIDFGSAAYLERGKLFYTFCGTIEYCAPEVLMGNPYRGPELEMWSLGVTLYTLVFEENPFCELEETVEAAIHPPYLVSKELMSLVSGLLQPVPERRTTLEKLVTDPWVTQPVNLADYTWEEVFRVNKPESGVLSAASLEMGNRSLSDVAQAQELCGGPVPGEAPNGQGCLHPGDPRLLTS

[21] = target: AURKB (human) (UniProt Q96GD4)
Chain of AURKB (human) (Q96GD4 whole entry, looked up): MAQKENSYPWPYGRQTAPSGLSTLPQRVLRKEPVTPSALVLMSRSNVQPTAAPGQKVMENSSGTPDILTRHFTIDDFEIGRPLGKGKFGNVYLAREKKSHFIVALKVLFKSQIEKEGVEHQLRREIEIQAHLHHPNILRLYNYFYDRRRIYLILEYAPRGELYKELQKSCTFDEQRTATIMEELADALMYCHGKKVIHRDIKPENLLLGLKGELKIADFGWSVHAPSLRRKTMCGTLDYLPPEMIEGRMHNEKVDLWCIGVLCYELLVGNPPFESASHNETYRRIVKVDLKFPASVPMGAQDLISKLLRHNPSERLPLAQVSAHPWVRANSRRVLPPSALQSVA

[22] = target: CAMKK1 (human) (UniProt Q8N5S9)
Chain of CAMKK1 (human) (Q8N5S9 whole entry, looked up): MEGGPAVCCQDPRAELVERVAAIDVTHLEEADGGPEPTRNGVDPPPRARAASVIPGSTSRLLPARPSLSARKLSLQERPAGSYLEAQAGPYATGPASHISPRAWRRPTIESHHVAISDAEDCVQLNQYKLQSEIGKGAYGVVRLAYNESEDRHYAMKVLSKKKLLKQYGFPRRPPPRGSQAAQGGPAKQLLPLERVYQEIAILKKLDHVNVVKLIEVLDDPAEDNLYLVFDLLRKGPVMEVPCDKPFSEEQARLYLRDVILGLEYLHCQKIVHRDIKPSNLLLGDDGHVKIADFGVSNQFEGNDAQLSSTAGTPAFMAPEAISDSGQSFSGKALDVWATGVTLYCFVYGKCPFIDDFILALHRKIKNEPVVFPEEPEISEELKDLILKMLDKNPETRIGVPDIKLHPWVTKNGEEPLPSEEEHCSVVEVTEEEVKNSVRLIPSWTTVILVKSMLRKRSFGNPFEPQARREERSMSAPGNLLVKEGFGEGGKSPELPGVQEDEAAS

[23] = target: DDR2 (human) (UniProt Q16832)
[24] = target: CLK2 (human) (UniProt P49760)
[25] = target: DSTYK (human) (UniProt Q6XUX3)
[26] = target: CDK7 CCNH MNAT1 (human) (UniProt P50613+P51948+P51946)
[27] = target: TAOK2 (human) (UniProt Q9UL54)
[28] = target: OXSR1 (human) (UniProt O95747)
Chain of OXSR1 (human) (O95747 whole entry, looked up): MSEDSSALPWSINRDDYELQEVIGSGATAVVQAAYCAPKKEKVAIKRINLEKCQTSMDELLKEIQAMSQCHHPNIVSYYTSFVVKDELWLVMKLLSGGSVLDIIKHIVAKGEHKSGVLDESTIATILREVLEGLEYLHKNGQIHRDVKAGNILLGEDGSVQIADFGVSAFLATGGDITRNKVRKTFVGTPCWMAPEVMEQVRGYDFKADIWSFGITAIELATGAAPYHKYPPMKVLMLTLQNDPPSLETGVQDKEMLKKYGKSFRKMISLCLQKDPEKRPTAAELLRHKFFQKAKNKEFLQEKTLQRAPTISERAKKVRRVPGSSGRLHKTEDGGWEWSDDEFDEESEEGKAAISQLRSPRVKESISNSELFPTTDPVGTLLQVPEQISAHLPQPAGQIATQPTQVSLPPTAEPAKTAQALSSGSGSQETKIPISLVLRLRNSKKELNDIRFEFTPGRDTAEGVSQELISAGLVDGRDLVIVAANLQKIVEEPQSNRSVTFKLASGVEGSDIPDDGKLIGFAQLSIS

[29] = target: SIK2 (human) (UniProt Q9H0K1)
[30] = target: PLK2 (human) (UniProt Q9NYY3)
[31] = target: EPHA1 (human) (UniProt P21709)
[32] = target: CAMK2A (human) (UniProt Q9UQM7)
[33] = target: ALK (human) (UniProt Q9UM73)
[34] = target: TNK2 (human) (UniProt Q07912)
[35] = target: DCLK2 (human) (UniProt Q8N568)
[36] = target: CSNK1G3 (human) (UniProt Q9Y6M4)
[37] = target: MST1R (human) (UniProt Q04912)
[38] = target: TYRO3 (human) (UniProt Q06418)
[39] = target: AURKC (human) (UniProt Q9UQB9)
[40] = target: CSNK2A2 (human) (UniProt P19784)
[41] = target: SLK (human) (UniProt Q9H2G2)
[42] = target: PRKACA (human) (UniProt P17612)

COc1cc2ncnc(Nc3ccc(Oc4ccccc4)cc3)c2cc1OC
residual activity [1]: 102% | residual activity [2]: 98.3% | residual activity [3]: 95.6% | residual activity [4]: 91.6% | residual activity [5]: 94.8% | residual activity [6]: 105% | residual activity [7]: 96.4% | residual activity [8]: 3.23% | residual activity [9]: 105% | residual activity [10]: 93.7% | residual activity [11]: 94.6% | residual activity [12]: 107% | residual activity [13]: 8.91% | residual activity [14]: 95.6% | residual activity [15]: 84.6% | residual activity [16]: 93% | residual activity [17]: 75.6% | residual activity [18]: 101% | residual activity [19]: 99% | residual activity [20]: 104% | residual activity [21]: 50.9% | residual activity [22]: 93.1% | residual activity [23]: 97.9% | residual activity [24]: 103% | residual activity [25]: 91.6% | residual activity [26]: 102% | residual activity [27]: 97.8% | residual activity [28]: 97.5% | residual activity [29]: 97.7% | residual activity [30]: 104% | residual activity [31]: 95.6% | residual activity [32]: 102% | residual activity [33]: 109% | residual activity [34]: 49% | residual activity [35]: 99.5% | residual activity [36]: 99.4% | residual activity [37]: 95.7% | residual activity [38]: 83.4% | residual activity [39]: 93.9% | residual activity [40]: 98.2% | residual activity [41]: 88.7% | residual activity [42]: 102%

O=C1c2ccccc2-c2nc3nnnn3nc21
residual activity [1]: 90.8% | residual activity [2]: 177% | residual activity [3]: 86.5% | residual activity [4]: 101% | residual activity [5]: 107% | residual activity [6]: 94.7% | residual activity [7]: 89.7% | residual activity [8]: 100% | residual activity [9]: 94.1% | residual activity [10]: 59.4% | residual activity [11]: 99% | residual activity [12]: 80.5% | residual activity [13]: 79.8% | residual activity [14]: 82.6% | residual activity [15]: 95% | residual activity [16]: 124% | residual activity [17]: 22.2% | residual activity [18]: 95.8% | residual activity [19]: 51.9% | residual activity [20]: 73.4% | residual activity [21]: 84.7% | residual activity [22]: 74.9% | residual activity [23]: 58.7% | residual activity [24]: 92.1% | residual activity [25]: 81.5% | residual activity [26]: 94.1% | residual activity [27]: 91.9% | residual activity [28]: 83% | residual activity [29]: 106% | residual activity [30]: 37.3% | residual activity [31]: 73.1% | residual activity [32]: 84.7% | residual activity [33]: 83.5% | residual activity [34]: 44.9% | residual activity [35]: 86.5% | residual activity [36]: 80.3% | residual activity [37]: 93.6% | residual activity [38]: 33.3% | residual activity [39]: 95.4% | residual activity [40]: 76.2% | residual activity [41]: 92.4% | residual activity [42]: 76.6%
